For experiment [1], the species on record is Cavia porcellus. Briefly: Ke value for naloxon as antagonist (compound) was measured by using Guinea pig ileum assay. The class given is functional.
The species entered for experiment [2] is Cavia porcellus. The experiment can be described thus: Concentration of compound to inhibit 50% (IC50) electrically evoked contractions was tested in Guinea pig ileum(GPI) assay. The format is functional.
The species named for experiment [3] is Cavia porcellus. Briefly: The relative potency of compound was measured by comparing the potency of compound to the [Leu]enkephalin in Guinea pig ileum(GPI) assay. The class given is functional.
The species entered for experiment [4] is Mus musculus. Briefly: The relative potency of compound was measured by comparing the potency of compound to the [Leu]enkephalin in Mouse vas deferens (MVD) assay. The format is functional.
For experiment [5], the species on record is Mus musculus. The experiment can be described thus: Concentration of compound to inhibit 50% (IC50) electrically evoked contractions was tested in Mouse vas deferens (MVD) assay. The class given is functional.
For experiment [6], the species on record is Mus musculus. The experiment can be described thus: Ke value for naloxone as antagonist (compound) was measured by using Mouse vas deferens (MVD) assay. The class given is functional.
For experiment [7], the target named is T1, Delta-type opioid receptor (Rattus norvegicus, UniProt P33533). Briefly: Binding affinity against Opioid receptor delta 1 by displacement of radioligand [3H]DSLET in rat brain membrane. The format is cell membranes.
T1 sequence (P33533 whole entry): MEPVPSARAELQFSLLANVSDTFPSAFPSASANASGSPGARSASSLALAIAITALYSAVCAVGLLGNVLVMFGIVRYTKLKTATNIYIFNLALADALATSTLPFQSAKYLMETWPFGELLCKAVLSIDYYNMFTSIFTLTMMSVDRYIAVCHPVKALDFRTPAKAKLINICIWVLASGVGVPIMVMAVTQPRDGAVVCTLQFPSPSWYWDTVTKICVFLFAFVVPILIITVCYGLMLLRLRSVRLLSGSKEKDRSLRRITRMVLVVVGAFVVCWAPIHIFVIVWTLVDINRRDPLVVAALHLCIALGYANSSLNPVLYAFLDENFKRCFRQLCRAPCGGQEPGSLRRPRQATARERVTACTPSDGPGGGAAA
Experiment [8] deals with T2, Mu-type opioid receptor (Rattus norvegicus, UniProt P33535). Briefly: Binding affinity against Opioid receptor mu 1 by displacement of radioligand [3H]-DAGO in rat brain membrane. The format is cell membranes.
T2 sequence (P33535 whole entry): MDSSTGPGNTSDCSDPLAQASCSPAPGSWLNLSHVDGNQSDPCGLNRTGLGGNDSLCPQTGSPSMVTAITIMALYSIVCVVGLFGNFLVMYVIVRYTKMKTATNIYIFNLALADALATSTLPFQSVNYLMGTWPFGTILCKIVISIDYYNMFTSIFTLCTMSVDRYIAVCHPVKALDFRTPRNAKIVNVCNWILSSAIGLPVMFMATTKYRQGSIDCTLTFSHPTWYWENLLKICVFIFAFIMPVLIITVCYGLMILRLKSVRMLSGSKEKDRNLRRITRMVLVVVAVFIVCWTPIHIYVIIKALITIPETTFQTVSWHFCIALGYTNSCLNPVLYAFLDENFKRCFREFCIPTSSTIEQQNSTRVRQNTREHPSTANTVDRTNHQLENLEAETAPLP
The target in experiment [9] is Delta-type opioid receptor (Rattus norvegicus) (UniProt P33533). The experiment can be described thus: The relative potency of compound was measured against Opioid receptor delta 1 to that of [Leu]enkephalin in [3H]DSLET binding assay.
Chain of Delta-type opioid receptor (Rattus norvegicus) (P33533 whole entry): as the sequence (P33533 whole entry) above
Experiment [10] concerns the target Mu-type opioid receptor (Rattus norvegicus) (UniProt P33535). Briefly: The relative potency of compound was measured against Opioid receptor mu 1 to that of [Leu]enkephalin in [3H]DAGO binding assay.
Experiment [11] in a line: Ratio of IC50 in Mouse vas deferens and Guinea pig ileum assay. The format is functional.
In experiment [12] the target is T1, Delta-type opioid receptor. The experiment can be described thus: Binding affinity against opioid receptor delta by displacement of radioligand [3H]DSLET in rat brain membrane. The class given is cell membranes.
For experiment [13], the target named is T2, Mu-type opioid receptor. The experiment can be described thus: Binding affinity against opioid receptor mu by displacement of radioligand [3H]DAGO in rat brain membrane. The format is cell membranes.
Experiment [14] is filed under the species Cavia porcellus. Briefly: The relative potency of compound was measured by comparing with [Leu]enkephalin in Guinea pig ileum(GPI) assay. The class given is functional.
For experiment [15], the species on record is Mus musculus. The experiment can be described thus: The relative potency of compound was measured by comparing with [Leu]enkephalin in Mouse vas deferens (MVD) assay. The format is functional.
In experiment [16] the target is T1, Delta-type opioid receptor. Briefly: Binding affinity against delta opioid receptor by displacement of radioligand [3H]DSLET in rat brain membrane. The format is cell membranes.
Experiment [17] concerns the target T2, Mu-type opioid receptor. Briefly: Binding affinity against mu opioid receptor by displacement of radioligand [3H]DAGO in rat brain membrane. The class given is cell membranes.
Experiment [18] addresses Delta-type opioid receptor (Rattus norvegicus) (UniProt P33533). The experiment can be described thus: The relative potency of compound was measured against opioid receptor delta to that of [Leu]enkephalin in [3H]DSLET binding assay.
For experiment [19], the target named is Mu-type opioid receptor (Rattus norvegicus) (UniProt P33535). Briefly: The relative potency of compound was measured against Opioid receptor mu to that of [Leu]enkephalin in [3H]DAGO binding assay.
Chain of Mu-type opioid receptor (Rattus norvegicus) (P33535 whole entry): as the sequence (P33535 whole entry) above
The target is the same in experiment [20]. Briefly: Ratio of binding affinity of opioid receptor mu and opioid receptor delta.
Experiment [21] has as its target T2, Mu-type opioid receptor. Briefly: Binding affinity against Opioid receptor mu 1 by displacement of radioligand [3H]DAGO in rat brain membrane. The class given is cell membranes.
Experiment [22] addresses Delta-type opioid receptor (Rattus norvegicus) (UniProt P33533). The experiment can be described thus: The relative potency of compound was measured against dOpioid receptor delta 1 to that of [Leu]enkephalin in [3H]DSLET binding assay.

A word on the pIC50: it is −log10 of the IC50, conventionally taken in molar units. A higher pIC50 goes with a low IC50. The pKi is −log10 of the Ki, conventionally taken in molar units. A low value points to a high Ki.

pIC50, pKi: −log10 of the molar value. Square brackets hold non-standard residues; d marks the D form. Peptide text beside a SMILES is read from it. dNle = CCCC[C@@H](N)C(=O)O; dNva = CCC[C@@H](N)C(=O)O; Orn = NCCC[C@H](N)C(=O)O

On to `C[C@@H](NC(=O)[C@@H](N)Cc1ccc(O)cc1)C(=O)N[C@@H](Cc1ccccc1)C(=O)N[C@@H](Cc1ccccc1)C(=O)N[C@@H](CCCN=C(N)N)C(=O)N[C@@H](CCCN=C(N)N)C(N)=O`, for which the Ke is 0.57 nM in [1] and 1.27 nM in experiment [6]. Moreover, the negative-log IC50 (pIC50) in [2] was 7.67; in [5] it was 5.89. In addition, the Relative potency was found to be 11.4 in experiment [3], 0.00875 in experiment [4], 0.0152 in experiment [9] and 3.67 in [10]. Also, the values for the pKi in [7] and in experiment [8] were 6.78 and 8.59, respectively. In addition, the Ratio in experiment [11] is on record as 60.2.

In the case of `N=C(N)NCCC[C@@H](NC(=O)C(N)Cc1ccc(O)cc1)C(=O)NC(Cc1ccccc1)C(=O)NCCC(N)C(=O)O` (stereo not given in full), the pKi was 4.90 in experiment [12] and 8.24 in [13].

For the compound `NCCCC[C@H](NC(=O)[C@H](Cc1ccccc1)NC(=O)[C@@H](CCCN=C(N)N)NC(=O)[C@@H](N)Cc1ccc(O)cc1)C(N)=O`, the Ke was 1.17 nM in [1] and 1.64 nM in experiment [6]. For the same compound, the values for the pIC50 in [2] and in experiment [5] were 6.60 and 6.11, respectively.

For `CCC[C@@H](NC(=O)[C@@H](N)Cc1ccc(O)cc1)C(=O)N[C@@H](Cc1ccccc1)C(=O)N[C@@H](CCCN)C(N)=O` (H-Y[dNva]F[Orn]-NH2), the Ke in experiment [1] is reported as 1.55 nM; in [6], 1.47 nM. For the same compound, the Relative potency stood at 2.36 in experiment [14] and 0.042 in experiment [15]. Besides, the pIC50 was 6.98 in [2] and 6.57 in experiment [5]. Besides, the Ratio in [11] is on record as 2.61.

On to `NC(=O)[C@H](CCCN=C(N)N)NC(=O)[C@H](CCCN=C(N)N)NC(=O)[C@@H]1CC(=O)NCCC[C@@H](NC(=O)[C@@H](N)Cc2ccc(O)cc2)C(=O)N[C@@H](Cc2ccccc2)C(=O)N1` [listing 1 of 2 here], for which the negative-log IC50 (pIC50) in experiment [2] is 7.39; in experiment [5] it was 6.13. For the same compound, the pKi in experiment [16] is 5.73; in experiment [17], 7.63.

As to `NC(=O)[C@@H]1CC(=O)NCCC[C@@H](NC(=O)[C@@H](N)c2ccc(O)cc2)C(=O)N[C@@H](Cc2ccccc2)C(=O)N1` [listing 1 of 2 here], the pIC50 is 7.44 in experiment [2] and 5.41 in experiment [5]. The pKi is 5.65 in [12] and 7.98 in [13].

Turning to `NC(=O)[C@H]1CC(=O)NCCC[C@H](NC(=O)[C@@H](N)c2ccc(O)cc2)C(=O)N[C@@H](Cc2ccccc2)C(=O)N1`, the Relative potency in experiment [18] turned out to be 0.00114; in experiment [19], 0.907. For the same compound, in [20], the Ratio came to 213.

As for `C[C@@H](NC(=O)[C@@H](N)Cc1ccc(O)cc1)C(=O)N[C@@H](Cc1ccccc1)C(=O)N[C@@H](Cc1ccccc1)C(N)=O` (H-Y[dA]FF-NH2), the values for the Ke in [1] and in experiment [6] were 0.789 nM and 1.31 nM, respectively. Also, the Relative potency in experiment [14] was determined as 76.2; in experiment [15], 0.0143; in experiment [9], 0.00405; in experiment [10], 6.15. Besides, the pIC50 in experiment [2] is 8.49; in experiment [5], 6.10. In addition, in experiment [11], the Ratio is 247.

For the compound `CCCC[C@H](NC(=O)[C@H](Cc1ccccc1)NC(=O)[C@@H](CCC)NC(=O)[C@@H](N)Cc1ccc(O)cc1)C(N)=O`, the Ke in experiment [1] is 1.72 nM; in experiment [6] it was 1.27 nM. The Relative potency in [14] came out at 8.04; in experiment [15], 0.0745; in experiment [22] it was 0.014; in experiment [10] it was 2.67. Also, the pIC50 in [2] was 7.51; in [5], 6.82. Besides, the pKi in experiment [7] was 6.74; in [21] it was 8.45. Moreover, the Ratio in [11] turned out to be 5.

With `C[C@@H](NC(=O)[C@@H](N)Cc1ccc(O)cc1)C(=O)NCC(=O)N(C)[C@@H](Cc1ccccc1)C(=O)NCCO` [DAMGO], the pIC50 in experiment [2] is 7.55; in [5], 6.02. In [7], this compound gave a pKi of 5.89.

For `NCCC[C@H](NC(=O)[C@H](Cc1ccccc1)NC(=O)[C@@H](CCCN=C(N)N)NC(=O)[C@@H](N)Cc1ccc(O)cc1)C(N)=O`, the values for the Ke in experiment [1] and in [6] were 1.24 nM and 1.13 nM, respectively. For the same compound, the negative-log IC50 (pIC50) in experiment [2] is 6.46; in [5], 5.96. The Relative potency worked out at 0.712 in [3], 0.0105 in experiment [4], 0.000272 in experiment [18] and 7.83 in [19]. In addition, the Ratio in [20] was 7740; in experiment [11] it was 3.15.

Regarding `NC(=O)[C@@H]1CC(=O)NCCC[C@@H](NC(=O)[C@@H](N)c2ccc(O)cc2)C(=O)N[C@@H](Cc2ccccc2)C(=O)N1` [listing 2 of 2 here], the Ke is 1.57 nM in experiment [1] and 2.11 nM in experiment [6]. Also, the figures for the Relative potency in experiment [3] and in [4] were 6.8 and 0.00294, respectively. Further, in [11], the Ratio is reported as 107.

As for `CCCC[C@@H](NC(=O)[C@@H](N)Cc1ccc(O)cc1)C(=O)N[C@@H](Cc1ccccc1)C(=O)N[C@@H](CCCN)C(N)=O` (H-Y[dNle]F[Orn]-NH2), the Ke in experiment [1] was 1.01 nM; in [6] it was 1.5 nM. In addition, the figures for the Relative potency in experiment [14] and in experiment [15] were 1.46 and 0.00498, respectively. Also, the pIC50 in experiment [2] is 6.77; in experiment [5], 5.64. Further, in experiment [11], the Ratio amounted to 13.6.

For the compound `NC(=O)[C@H](CCCN=C(N)N)NC(=O)[C@H](CCCN=C(N)N)NC(=O)[C@@H]1CC(=O)NCCC[C@@H](NC(=O)[C@@H](N)Cc2ccc(O)cc2)C(=O)N[C@@H](Cc2ccccc2)C(=O)N1` [listing 2 of 2 here], the Ke in [1] worked out at 2.03 nM; in [6] it was 2.02 nM. The Relative potency is recorded as 6.01 in experiment [3] and 0.0153 in [4]. In [11], the Ratio was 18.2.

For the compound `NC(N)=NCCC[C@@H](NC(=O)C(N)Cc1ccc(O)cc1)C(=O)NC(Cc1ccccc1)C(=O)NCCC(N)C(=O)O` (stereo not given in full), the Ke in experiment [1] was found to be 1.32 nM; in experiment [6], 1.01 nM. Moreover, the pIC50 in experiment [2] was 6.59; in experiment [5], 6.18. Also, the Relative potency is 0.956 in experiment [3], 0.0173 in experiment [4], 0.000202 in [18] and 1.63 in experiment [19]. In addition, the results for the Ratio in experiment [20] and in [11] were 2180 and 2.56, respectively.

For the origin of these results see ChEMBL document CHEMBL1124430, “Dermorphin analogues carrying an increased positive net charge in their "message" domain display extremely high mu opioid receptor selectivity” (J Med Chem, 1989).
